This passage reports IC50 and Ki results from US8026282B2, “Phenoxyalkylcarboxylic acid derivatives in the treatment of irritable bowel syndrome” (Medicinova, Inc., priority 2004, dated 2011).

pIC50, pKi: −log10 of the molar value.

One assay has as its target T1, Thromboxane A2 (Homo sapiens, UniProt P21731).
T1 sequence (P21731 1-343): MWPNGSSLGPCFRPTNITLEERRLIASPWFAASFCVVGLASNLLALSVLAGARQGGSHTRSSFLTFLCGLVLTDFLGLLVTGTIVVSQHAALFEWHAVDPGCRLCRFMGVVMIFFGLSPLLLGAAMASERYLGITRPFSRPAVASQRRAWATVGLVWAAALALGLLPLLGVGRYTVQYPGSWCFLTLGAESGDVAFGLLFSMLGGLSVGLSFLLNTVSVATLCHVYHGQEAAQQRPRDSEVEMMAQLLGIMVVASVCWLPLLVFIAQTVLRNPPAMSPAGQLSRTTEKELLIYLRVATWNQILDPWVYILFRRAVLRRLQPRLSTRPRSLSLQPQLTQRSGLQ
The experiment in a line: Biochemical assay Thromboxane A2. The class given is binding. The note with it: Thromboxane A2, Hu; for pKi: value in parentheses.

A further assay addresses PLA2-I (Sus scrofa, UniProt P00592). In words: Biochemical assay PLA2-I. To be noted: Pig.
For another assay, the target named is PDE2 (Homo sapiens, UniProt O00408). In words: Biochemical assay PDE2. To be noted: PDE2, Hu.
PDE2, sequence (O00408 whole entry): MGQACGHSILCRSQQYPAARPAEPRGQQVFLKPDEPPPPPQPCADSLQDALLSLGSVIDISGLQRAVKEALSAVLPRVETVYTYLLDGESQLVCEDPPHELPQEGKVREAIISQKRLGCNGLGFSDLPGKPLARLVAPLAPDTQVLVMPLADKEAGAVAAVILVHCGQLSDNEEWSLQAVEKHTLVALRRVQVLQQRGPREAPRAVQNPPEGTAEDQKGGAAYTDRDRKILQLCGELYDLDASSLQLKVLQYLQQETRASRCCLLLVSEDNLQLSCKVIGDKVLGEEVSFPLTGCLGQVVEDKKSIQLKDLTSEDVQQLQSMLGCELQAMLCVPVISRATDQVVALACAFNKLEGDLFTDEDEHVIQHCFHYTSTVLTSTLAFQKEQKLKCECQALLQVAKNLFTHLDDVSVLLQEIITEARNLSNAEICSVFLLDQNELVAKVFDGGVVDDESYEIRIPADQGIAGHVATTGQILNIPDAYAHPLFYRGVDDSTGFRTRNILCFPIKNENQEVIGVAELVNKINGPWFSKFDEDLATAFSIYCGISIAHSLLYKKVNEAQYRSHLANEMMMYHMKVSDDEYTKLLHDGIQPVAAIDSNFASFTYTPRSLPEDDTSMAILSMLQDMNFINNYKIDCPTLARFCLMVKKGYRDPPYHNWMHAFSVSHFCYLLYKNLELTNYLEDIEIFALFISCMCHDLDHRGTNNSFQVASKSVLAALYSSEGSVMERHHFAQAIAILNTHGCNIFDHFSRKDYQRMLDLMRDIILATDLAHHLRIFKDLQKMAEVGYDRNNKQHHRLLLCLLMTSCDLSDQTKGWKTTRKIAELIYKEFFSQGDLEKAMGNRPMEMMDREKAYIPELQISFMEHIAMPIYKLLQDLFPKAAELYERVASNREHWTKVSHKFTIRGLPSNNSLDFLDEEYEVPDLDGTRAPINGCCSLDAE
In assay [1] the target is Adrenergic, NE Transporter (Homo sapiens, UniProt P23975). In words: Biochemical assay Adrenergic, NE Transporter. To be noted: Hu; for pKi: value in parentheses. Format: binding.
Adrenergic, NE Transporter, sequence (P23975 whole entry): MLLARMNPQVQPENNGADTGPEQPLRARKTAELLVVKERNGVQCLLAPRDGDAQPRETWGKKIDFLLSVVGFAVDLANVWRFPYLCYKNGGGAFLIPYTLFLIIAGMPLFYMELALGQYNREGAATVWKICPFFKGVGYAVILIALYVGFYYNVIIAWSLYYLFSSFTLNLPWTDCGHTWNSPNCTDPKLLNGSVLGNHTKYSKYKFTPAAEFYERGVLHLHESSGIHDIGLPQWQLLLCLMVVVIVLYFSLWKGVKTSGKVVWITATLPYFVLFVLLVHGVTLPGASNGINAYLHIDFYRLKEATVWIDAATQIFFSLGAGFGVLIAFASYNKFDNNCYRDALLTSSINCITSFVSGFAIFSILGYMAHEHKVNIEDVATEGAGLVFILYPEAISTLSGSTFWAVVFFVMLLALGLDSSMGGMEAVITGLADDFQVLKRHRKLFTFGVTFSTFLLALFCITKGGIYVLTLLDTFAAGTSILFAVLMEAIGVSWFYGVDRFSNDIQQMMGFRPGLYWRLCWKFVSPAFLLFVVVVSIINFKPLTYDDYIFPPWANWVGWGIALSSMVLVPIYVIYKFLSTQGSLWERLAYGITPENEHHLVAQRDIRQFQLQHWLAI
A further assay addresses Opiate δ (Homo sapiens, UniProt P41143). The experiment in a line: Biochemical assay Opiate δ. The class given is binding. To be noted: Hu; for pKi: value in parentheses.
The next assay addresses Adrenergic β3 (Homo sapiens, UniProt P13945). The experiment in a line: Biochemical assay Adrenergic β3. The note with it: Adrenergic β3, Hu; for pKi: value in parentheses. The class given is binding.
The next assay concerns PDE4. In words: Biochemical assay PDE4. The note with it: PDE4, Hu.
Another assay addresses PDE5 (Homo sapiens, UniProt O76074). In words: Biochemical assay PDE5. To be noted: PDE5, Hu.
In the next assay the target is T2, LTD4 (Cavia porcellus, UniProt Q2NNR5).
T2 sequence (Q2NNR5 1-340): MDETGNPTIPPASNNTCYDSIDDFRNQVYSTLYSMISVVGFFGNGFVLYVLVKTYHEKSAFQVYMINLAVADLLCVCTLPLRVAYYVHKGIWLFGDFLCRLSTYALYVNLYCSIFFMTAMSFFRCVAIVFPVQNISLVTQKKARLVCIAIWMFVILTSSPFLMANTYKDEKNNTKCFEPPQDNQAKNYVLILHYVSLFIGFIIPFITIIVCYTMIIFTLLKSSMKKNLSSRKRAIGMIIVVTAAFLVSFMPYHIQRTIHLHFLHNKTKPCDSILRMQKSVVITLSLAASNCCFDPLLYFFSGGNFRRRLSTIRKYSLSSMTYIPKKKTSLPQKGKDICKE
In words: Biochemical assay LTD4. The class given is binding. The note with it: LTD4, Gp; for pKi: value in parentheses.

Another assay concerns PDE1. The experiment in a line: Biochemical assay PDE1. The note with it: PDE1, Bov.
A further assay concerns the target T3, PDE6 (Bos taurus, UniProt P11541+P23439).
T3 sequence (P11541 1-859): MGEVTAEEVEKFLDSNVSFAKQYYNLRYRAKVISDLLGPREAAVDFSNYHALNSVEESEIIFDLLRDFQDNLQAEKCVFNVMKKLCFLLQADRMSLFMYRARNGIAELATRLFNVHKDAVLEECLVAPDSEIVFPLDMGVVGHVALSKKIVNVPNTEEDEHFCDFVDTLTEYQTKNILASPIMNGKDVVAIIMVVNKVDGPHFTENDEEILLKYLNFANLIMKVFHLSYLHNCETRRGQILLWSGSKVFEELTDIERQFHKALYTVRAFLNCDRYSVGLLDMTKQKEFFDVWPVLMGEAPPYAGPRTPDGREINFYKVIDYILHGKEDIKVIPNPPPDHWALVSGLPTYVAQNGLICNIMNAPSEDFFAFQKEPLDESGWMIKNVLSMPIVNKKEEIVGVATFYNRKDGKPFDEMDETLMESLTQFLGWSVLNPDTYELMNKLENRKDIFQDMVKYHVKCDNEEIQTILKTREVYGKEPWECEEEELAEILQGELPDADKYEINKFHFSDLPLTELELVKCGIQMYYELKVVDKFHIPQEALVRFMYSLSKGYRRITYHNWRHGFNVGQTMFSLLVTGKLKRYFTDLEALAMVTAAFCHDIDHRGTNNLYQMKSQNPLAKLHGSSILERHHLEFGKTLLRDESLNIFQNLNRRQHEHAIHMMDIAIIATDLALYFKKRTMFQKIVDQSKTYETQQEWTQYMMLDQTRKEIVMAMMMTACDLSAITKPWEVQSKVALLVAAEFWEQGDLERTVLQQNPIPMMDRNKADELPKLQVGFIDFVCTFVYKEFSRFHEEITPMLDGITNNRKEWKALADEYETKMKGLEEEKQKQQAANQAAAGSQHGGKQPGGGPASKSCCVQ
T3 sequence (P23439 1-853): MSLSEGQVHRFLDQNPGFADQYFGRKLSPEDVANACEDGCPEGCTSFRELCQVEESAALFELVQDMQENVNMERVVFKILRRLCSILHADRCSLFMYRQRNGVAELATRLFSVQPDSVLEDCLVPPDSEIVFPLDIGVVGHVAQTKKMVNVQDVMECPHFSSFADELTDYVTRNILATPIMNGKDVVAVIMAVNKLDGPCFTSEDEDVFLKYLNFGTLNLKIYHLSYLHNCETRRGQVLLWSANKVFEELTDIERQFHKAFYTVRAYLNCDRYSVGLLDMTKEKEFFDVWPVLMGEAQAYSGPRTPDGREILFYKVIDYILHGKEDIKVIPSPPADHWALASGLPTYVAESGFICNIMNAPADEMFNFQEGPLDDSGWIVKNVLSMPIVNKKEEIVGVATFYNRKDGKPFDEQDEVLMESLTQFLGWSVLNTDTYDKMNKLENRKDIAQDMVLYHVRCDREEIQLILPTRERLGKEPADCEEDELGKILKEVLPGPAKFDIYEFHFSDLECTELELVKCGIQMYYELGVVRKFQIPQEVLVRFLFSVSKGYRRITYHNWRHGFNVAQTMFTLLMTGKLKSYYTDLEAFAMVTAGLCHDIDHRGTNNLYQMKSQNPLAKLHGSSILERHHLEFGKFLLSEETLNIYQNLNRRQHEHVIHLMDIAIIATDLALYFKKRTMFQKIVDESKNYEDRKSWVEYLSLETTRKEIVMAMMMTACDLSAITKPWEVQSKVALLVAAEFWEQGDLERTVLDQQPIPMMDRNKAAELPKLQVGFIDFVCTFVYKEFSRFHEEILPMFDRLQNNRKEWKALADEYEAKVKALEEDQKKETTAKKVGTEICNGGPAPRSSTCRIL
The experiment in a line: Biochemical assay PDE6. To be noted: PDE6, Bov.

Adrenergic β3, sequence (P13945 whole entry): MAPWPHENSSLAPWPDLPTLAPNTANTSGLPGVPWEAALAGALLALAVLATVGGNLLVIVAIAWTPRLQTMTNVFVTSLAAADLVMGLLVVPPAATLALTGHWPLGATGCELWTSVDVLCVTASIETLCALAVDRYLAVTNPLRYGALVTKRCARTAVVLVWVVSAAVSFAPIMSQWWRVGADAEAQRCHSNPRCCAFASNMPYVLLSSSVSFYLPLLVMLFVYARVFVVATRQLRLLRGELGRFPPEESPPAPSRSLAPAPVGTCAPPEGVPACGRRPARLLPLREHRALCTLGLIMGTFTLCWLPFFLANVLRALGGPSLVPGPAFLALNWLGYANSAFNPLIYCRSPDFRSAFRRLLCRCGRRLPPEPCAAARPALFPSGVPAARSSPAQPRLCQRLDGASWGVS
Opiate δ, sequence (P41143 whole entry): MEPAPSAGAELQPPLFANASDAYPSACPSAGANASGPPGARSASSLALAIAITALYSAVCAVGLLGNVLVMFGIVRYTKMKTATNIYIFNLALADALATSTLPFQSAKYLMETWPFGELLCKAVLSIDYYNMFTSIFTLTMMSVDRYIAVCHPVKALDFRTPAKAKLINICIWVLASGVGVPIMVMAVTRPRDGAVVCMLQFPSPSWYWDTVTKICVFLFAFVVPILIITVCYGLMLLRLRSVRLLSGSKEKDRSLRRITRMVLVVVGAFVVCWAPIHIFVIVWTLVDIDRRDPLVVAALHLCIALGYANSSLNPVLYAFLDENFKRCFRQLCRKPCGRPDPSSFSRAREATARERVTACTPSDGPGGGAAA
PLA2-I, sequence (P00592 23-146): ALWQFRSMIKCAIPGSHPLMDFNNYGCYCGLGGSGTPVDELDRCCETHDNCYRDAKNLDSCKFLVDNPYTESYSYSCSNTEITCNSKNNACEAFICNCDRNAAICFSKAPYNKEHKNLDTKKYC

Turning to `CCCc1c(SCCCOc2ccc(C(C)=O)c(OCCCC(=O)O)c2CCC)ccc(C(C)=O)c1O` [Compound 1, 4-[6-acetyl-3-[3-(4-acetyl-3-hydroxy-2-propylphenylthio)propoxy]-2-propylphenoxy]butyric acid], the negative-log IC50 (pIC50) against Thromboxane A2 is 5.47; against PLA2-I it was 3.85; at PDE2, 5.46; in assay [1], 5.46; on Opiate δ, 5.98; against Adrenergic β3, 5.33. In addition, the negative logarithm of the IC50 (pIC50) with PDE4 is 6.19; against PDE5, 4.90; against LTD4, 5.20; with PDE1 it was 6.13; at PDE6 it was 5.69. For the same compound, the pKi at Thromboxane A2 was 5.66; in assay [1], 5.46; at Opiate δ, 6.44; at Adrenergic β3, 5.46; on LTD4, 5.50.
With `CCCc1c(SCCCOc2ccc(C(C)O)c(OCCCC(=O)O)c2CCC)ccc(C(C)=O)c1O` (centres unmarked) [Compound 2], the negative-log IC50 (pIC50) on Thromboxane A2 is 5.41; against PLA2-I it was 3.61; on PDE2, 5.47; in assay [1], 5.69; at Opiate δ, 5.52; against Adrenergic β3, 5.96. Further, the pIC50 with PDE4 is 6.52; against PDE5 it was 5.07; at LTD4, 5.27; in the assay on PDE1, 5.51; against PDE6, 5.76. The pKi was 5.60 on Thromboxane A2; 5.69 in [1]; 5.97 at Opiate δ; 6.09 at Adrenergic β3; 5.57 at LTD4.
